Measured values from patent publication US11420980B2, “Salt of pentacyclic compound and crystal thereof” (Eisai R&D Management Co., Ltd., priority 2019, dated 2022).

What was measured:
[1] = test system: ChAT positive cells of the medial septal area; test: Evaluation in human tau P301S transgenic mouse (ChAT positive cells, medial septal area); format: in vivo; settings: human tau P301S transgenic mice, oral once a day for three months (four- to seven-month-old), Dose: 5 mg/kg, mean±SEM, # significant vs vehicle (83.0 ± 5.8)
Source text: Evaluation in Human Tau P301S Transgenic Mouse
(§1) (1) Compound Administration
In this study, the test compounds were orally administered to human tau P301S transgenic mice once a day for three months from four-month-old to seven-month-old. The vehicle used was 0.01 mol/L hydrochloric acid.
At the initial day of the administration (four-month-old) and at the next day of the final administration, mice of vehicle administration group and test compound administration group were anesthetized under pentobarbital (50 mg/kg, i.p.) and perfused with PBS. After the perfusion, the forebrain including the medial septal area was collected and fixed with 4% parafomaldehyde.
(3) Preparation of Brain Coronal Frozen Section
The collected forebrain including the medial septal area was immersed and shaken overnight in 4% paraformaldehyde. […]
The prepared brain coronal frozen sections were stained with DAB (DAB PEROXIDASE SUBSTRATE KIT (Vector, SK-4100)) using a ChAT antibody (Santa Cruz, SC-20672) as a primary antibody. The section image including the medial septal area as shown in “The mouse Brain in stereotaxic coordinates” (COMPACT THIRD EDITION, Keith B. J. Franklin & George Paxinos) was taken by an all-in-one fluorescence microscope (KEYENCE, […]) and […] positive cells around the major axis of the medial septal area were counted by BZ analysis software (KEYENCE). […] Data are expressed as the mean±SEM. […]

[2] = test system: acetylcholine (ACh) in cerebrospinal fluid (CSF); test: Measurement of acetylcholine (ACh) in rat cerebrospinal fluid (CSF); format: in vivo; settings: Fischer 344 male rats, oral once a day at 10 mg/kg for three days, CSF 24 hours after administration, LC-MS
Description: Measurement of Acetylcholine (ACh) in Rat Cerebrospinal Fluid (CSF)
Thus, the changes in acetylcholine in CSF were measured in order to determine the changes in intracerebral acetylcholine by the test compounds.
(2) Compound Administration
In this study Fischer 344 male rats (Charles River Laboratories Japan, Inc.) with a body weight of about 150 to 250 g were used. The test compounds were orally administered to the rats once a day at 10 mg/kg for three days. The vehicle used was 0.01 mol/L hydrochloric acid.
At 24 hours after the administration of the vehicle and the test compounds, the CSF was collected from cisterna magna in a tube containing AchE inhibitors under pentobarbital anesthesia. The collected CSF was centrifuged at 3500×g at 4° C. for 10 minutes and the supernatant was collected. The collected supernatant was frozen with liquid nitrogen, and then stored at −80° C.
(4) Measurement of Ach by LC-MS
To 10 μL of the CSF was added 50 μL of acetylcholine-d9 chloride (ACh-d9) at a final concentration of 0.34 nmol/L as an internal standard. […] The supernatant was collected and subjected to LC/MS ([…]), and Ach was detected as precursor ion at m/z 146.050 and as product ion at m/z 87.071 and ACh-d9 as an internal standard was detected as precursor ion at m/z 155.088 and as product ion at m/z 87.000.

[3] = test system: ChAT positive cells of the medial septal area; test: Fimbria-fornix lesioned rat model: ChAT positive cells of the medial septal area; format: in vivo; settings: fimbria-fornix lesioned rats, oral once a day after the operation, % of sham-operated group, mean±SEM, # significant vs vehicle (38.4 ± 5.0)
Description: (§2) Neuroprotective and Restorative Effect on Cholinergic Neurons Using Fimbria-Formix Lesioned Rat Model
(§3) (1) Preparation of Fimbria-Fornix Lesioned Rat Model
(§4) In this studs Sprague-Dawley male rats (Charles River Laboratories Japan, Inc.) with a body weight of about 250 to 350 g were used. The rat was anesthetized under the combination of three drugs: midazolam (2 mg/kg s.c.), medetomidine hydrochloride (0.15 mg/kg s.c.) and butorphanol tartrate (2.5 mg/kg s.c.) and fixed with a brain stereotaxis apparatus (Narishige Co., Ltd.). The cranial was exposed and a hole with 5 mm width was drilled in the skull from the median line 2 mm posterior to Bregma. A razor with 4 mm width was pierced into the Bregma in 5.5 mm depth to cut fimbria-fornix. […]
(§5) The prepared brain coronal frozen sections were stained with DAB (DAB PEROXIDASE SUBSTRATE KIT (Vector, SK-4100)) using a ChAT antibody (Santa Cruz, SC-20672) or a VAChT antibody (Merck Millipore, ABN100) as a primary antibody. The section image including the medial septal area or hippocampus as shown in “The mouse Brain in stereotaxic coordinates” (COMPACT THIRD EDITION, Keith B. J. Franklin & George Paxinos) was taken by an all-in-one fluorescence microscope (KEYENCE, BZ-X710) and ChAT positive cells of the medial septal area or optical density (OD) in hippocampal VAChT were measured by BZ analysis software (KEYENCE). […] Data are expressed as the mean±SEM. […]

[4] = test system: Choline acetyltransferase (ChAT) mRNA; test: Measurement of choline acetyltransferase (ChAT) mRNA expression levels in the rat septal area; format: in vivo; settings: SD male rats, oral, 10 mg/kg, medial septum 24 hours after administration, qPCR
Description: Measurement of Choline Acetyltransferase (ChAT) mRNA Expression Levels in the Rat Septal Area
as §1
In this study, SD male rats (Charles River Laboratories Japan, Inc. with a body weight of about 250 to 350 g were used. The compound was dissolved in 0.01 mol/L hydrochloric acid, and orally administered.
At 24 hours after the administration of the compound, the whole brain tissue was collected under pentobarbital anesthesia. The medial septum was isolated from whole brain on ice and frozen with liquid nitrogen, and them stored at −80° C.
(3) Measurement of ChAT […] Expression Levels
For RNA purification, RNeasy Plus Mini Kit (#74136: QIAGEN) was used in this study. RNA purification was performed by the method described in the kit, After RNA purification, the total RNA concentration was measured by using QIAxpert Instrument (QIAGEN). cDNA was synthesized using SuperScript® VILO™ cDNA. Synthesis Kit (#11754: Thermo Fisher Scientific). The synthesis of cDNA was performed by the method described in the kit. […] Quantitative polymerase chain reaction (qPCR) was conducted using ABI PRISM® 7900HT (Thermo Fisher Scientific) by a fluorescence probe method. […]

[5] = test system: hippocampal vesicular acetylcholine transporter (VAChT); test: Fimbria-fornix lesioned rat model: optical density in hippocampal VAChT; format: in vivo; settings: fimbria-fornix lesioned rats, oral once a day after the operation, % of sham-operated group, mean±SEM, # significant vs vehicle (19.5 ± 6.4)
Description: as §2, §3, §4, §5

[6] = test system: rat primary septal neuron culture; test: Measurement of acetylcholine (ACh) release in the rat primary septal neuron culture system in the presence of NGF; format: cell-based; settings: rat primary septal neurons, with NGF, one day after compound addition, HPLC
Source text: Measurement of Acetylcholine (ACh) Release in the Rat Primary Septal Neuron Culture System in the Presence of NGF
(1) Rat Primary Septal Neuron Culture
The septal area was isolated from Sprague-Dawley (SD) rats (Charles River Laboratories Japan, Inc.) at a fetal age of 18 days, and cultured. Specifically, fetuses were aseptically removed from pregnant rats under isoflurane anesthesia. The brain was extracted from each fetus, and immersed in ice-cooled L-15 medium (11415-064. Thermo Fisher Scientific), The septal area was dissected from the extracted brain under a stereoscopic microscope. The dissected septal area was subjected to enzyme treatment in an enzyme solution containing 0.25% trypsin (15050-065. Thermo Fisher Scientific) and 0.01% DNase (D5025-1.50KU, Sigma) at 37° C. for 30 minutes, thereby dispersing the cells. In this case, the enzyme reaction was terminated by adding inactivated horse serum (26050-088. Thermo Fisher Scientific). The enzyme-treated solution was centrifuged at 1000 rpm for 3 minutes, and the supernatant was removed. A medium in an amount of 10 mL was added to the obtained cell mass. […]
One day after compound addition, an amount of ACh release was measured by HPLC in the following manner. […]

CN1CCc2c(sc3nc4n(c(=O)c23)-c2sccc2C(=O)N(C)C4)C1 [Reference Example 1, 5,10-dimethyl-5,6,9,10,11,12-hexahydropyrido[4″,3″:4′,5′]thieno[2′,3′:4,5]pyrimido[1,2-a]thieno[3,2-f][1,4]diazepine-4,13-dione]
Ratio (%) of number of ChAT positive cells compared to that in the initial administration [1]: 105.3 ± 4.3^# %
ACh concentration in CSF, percentage (% of control) versus vehicle administration group [2]: 156.8%
Number of ChAT positive cells (%) in test compound administration group [3]: 74.1 ± 9.3^# %
percentage of ChAT mRNA expression levels increased from the vehicle administration group [4]: 56.4%
OD in hippocampal VAChT (%) in test compound administration group [5]: 66.1 ± 14.2^# %
compound concentration showing a 20% increase from the ACh concentration in the buffer of the control group [6]: 0.1 µM
